This passage reports IC50 results from patent publication EP0800516B1, “FIBRINOGEN RECEPTOR ANTAGONISTS HAVING SUBSTITUTED (b)-AMINO ACID RESIDUES AND PHARMACEUTICAL COMPOSITIONS COMPRISING THE SAME” (Nippon Steel Corporation, priority 1994, dated 1996).

Each structure is given as a SMILES string.

This assay concerns Human Platelet Aggregation. Put plainly: in vitro human platelet aggregation using PRP (collagen-induced, light transmittance). The format is cell-based. The settings on record: aggregation induced with collagen (final concentration: 5 µ g/ml), 37°C. From the text: (Measurement of in vitro Human Platelet Aggregation using PRP)
Healthy male volunteers who had not taken any medicines for at least two weeks were selected as subjects. Blood was collected from the forearm vein of each subject on an empty stomach using a #19 needle and a plastic syringe preliminarily charged with 1/10 volume of a 3.8% sodium citrate solution. Immediately after the blood collection, the syringe was shaken gently to mix the blood with the sodium citrate solution. The mixed blood was centrifuged (1100 rpm, 250 g) at room temperature for 15 minutes and the rotation was stopped without applying the brake. Then, the supernatant was collected with a Komagome type pipette to obtain platelet-rich plasma (PRP). The PRP was stored at room temperature. The blood remaining after centrifuging was further centrifuged (3500 rpm, 1500 g) at room temperature for 15 minutes and the rotation was stopped without applying the brake. The supernatant was collected to obtain platelet-poor plasma (PPP). After the preparation of the PRP, the number of platelets was counted and only samples containing more than 2 x 10^8 of platelets per milliliter were subjected to the following experiments.
Platelet aggregation was measured using an 8-channel platelet aggregation measuring instrument (Hematracer, Nikoh Bioscience, Tokyo, Japan) on the basis of the change in light transmittance through the PRP. First, the PPP and PRP (each 200µl) were placed in glass cuvettes and incubated at 37°C . Thereafter, the transmittance was measured. The transmittance of the PPP was determined as 100% and that of the PRP as 0%. Then, 10µl of physiological saline or a sample-containing physiological saline was added to the PRP and incubated at 37°C for one minute. A collagen solution (10 µ l) at a concentration of […] was added (final concentration: 5 µ g/ml) to induce aggregation and thereafter the transmittance was measured over 7 minutes. After aggregation with collagen and ADP was confirmed, only those samples in which the maximum aggregation with collagen was at least 70% were subjected to the experiment.
The sample was dissolved in physiological saline to give a concentration of 2.2 x 10 ^-2 M and a 2-fold dilution series was prepared for use in the experiments. The samples insoluble in the physiological saline were dissolved in physiological saline containing 10% DMSO (dimethyl sulfoxide).
The results were calculated as follows: [formula]
A graph was constructed by plotting the percent aggregation inhibition against the sample concentration and the concentration at which the aggregation was inhibited by 50% (IC50) was calculated from the graph.
Turning to `CC(C)(C(=O)N1CCC(CC(=O)O)CC1)C(NC(=O)c1ccc(C(=N)N)cc1)c1ccc(Cl)cc1` (stereo not drawn) [Example 25, N-(N-4-amidinobenzoyl-β-p-chlorophenyl-α,α -dimethyl-β-alanyl)-4-piperidineacetic acid], the IC50 stood at 0.48 µM.

On to `COc1ccccc1C(NC(=O)c1ccc(C(=N)N)cc1)C(C)(C)C(=O)N1CCC(CC(=O)O)CC1` (stereo not drawn) [Example 26, N-(N-4-amidinobenzoyl-β-o-methoxyphenyl-α, α-dimethyl-β-alanyl)-4-piperidineacetic acid], for which half-maximal inhibition (IC50) required 0.34 µM.

In turn, `CC(C)(C(=O)N1CCC(CC(=O)O)CC1)C(NC(=O)c1ccc(C(=N)N)cc1)c1ccc(O)cc1` (stereo not drawn) [Example 27, N-(N-4-amidinobenzoyl-β-p-hydroxyphenyl-α, α-dimethyl-β-alanyl)-4-piperidineacetic acid] came in with a 50% inhibitory concentration (IC50) of 0.2 µM.

`CC(C)(C(=O)N1CCC(CC(=O)O)CC1)C(NC(=O)c1ccc(C(=N)N)cc1)c1cccc(O)c1` (stereo not drawn) [Example 28, N-(N-4-amidinobenzoyl-β-m-hydroxyphenyl-α, α-dimethyl-β-alanyl)-4-piperidineacetic acid] yielded an IC50 of 0.076 µM.

For `CC=CC(NC(=O)c1ccc(C(=N)N)cc1)C(C)(C)C(=O)N1CCC(CC(=O)O)CC1` (stereo not drawn) [Example 29, N-(N-4-amidinobenzoyl-β-1-propenyl-α,α-dimethyl-β-alanyl)-4-piperidineacetic acid], the IC50 was 0.1 µM.

`CCCCC(NC(=O)c1ccc(C(=N)N)cc1)C1(C(=O)N2CCC(CC(=O)O)CC2)CCCCC1` (centres unmarked) [Example 30, N-(((N-4-amidinobenzoyl)-1-amino)-1-pentyl-1-cyclohexane-carbonyl)-4-piperidineacetic acid] registered an IC50 of 0.16 µM.

Compound `CN(C)c1ccc(C(NC(=O)c2ccc(C(=N)N)cc2)C(C)(C)C(=O)N2CCC(CC(=O)O)CC2)cc1` (stereo not drawn) [Example 31, N-(N-4-amidinobenzoyl-β-p-N,N-dimethylaminophenyl-α, α-dimethyl-β-alanyl)-4-piperidineacetic acid] gave a half-inhibitory concentration (IC50) of 0.47 µM.

`CCCCc1ccc(C(NC(=O)c2ccc(C(=N)N)cc2)C(C)(C)C(=O)N2CCC(CC(=O)O)CC2)cc1` (stereo not drawn) [Example 32, N-(N-4-amidinobenzoyl-β-p-n-butylphenyl-α, α-dimethyl-β-alanyl)-4-piperidineacetic acid] yielded an IC50 of 0.15 µM.

`CCCCC(NC(=O)c1ccc(C(=N)N)cc1F)C(C)(C)C(=O)N1CCC(CC(=O)O)CC1` (stereo not drawn) [Example 33, N-(N-4-amidino-2-fluorobenzoyl-β-n-butyl-α ,α-dimethyl-β-alanyl)-4-piperidineacetic acid] had an IC50 of 0.073 µM.

For the compound `CC(C)(C(=O)N1CCC(CC(=O)O)CC1)C(NC(=O)c1ccc(C(=N)N)cc1Cl)c1ccccc1` (stereo not drawn) [Example 34, N-(N-4-amidino-2-chlorobenzoyl-β-phenyl-α, α-dimethyl-β-alanyl)-4-piperidineacetic acid], the 50% inhibitory concentration (IC50) was 0.36 µM.

With `CC(C)(C(=O)N1CCC(CC(=O)O)CC1)C(CCc1cccc(O)c1)NC(=O)c1ccc(C(=N)N)cc1` (stereo not drawn) [Example 37, N-(N-4-amidinobenzoyl-β-m-hydroxyphenethyl-α, α-dimethyl-β-alanyl)-4-piperidineacetic acid], it took 0.19 µM to reach half-maximal inhibition (IC50).

Regarding `C#CC(NC(=O)c1ccc(C(=N)N)cc1)C(C)(C)C(=O)N1CCC(CC(=O)O)CC1` (stereo not drawn) [Example 38, N-(N-4-amidinobenzoyl-β-ethynyl-α,α-dimethyl-β-alanyl)-4-piperidineacetic acid], the IC50 is 0.15 µM.

`CCC(NC(=O)c1ccc(C(=N)N)cc1F)C(C)(C)C(=O)N1CCC(CC(=O)O)CC1` (stereo not drawn) [Example 39, N-(N-4-amidino-2-fluorobenzoyl-β-ethyl-α, α-dimethyl-β-alanyl)-4-piperidineacetic acid] returned an IC50 of 0.061 µM.

Compound `CC(NC(=O)c1ccc(C(=N)N)cc1F)C(C)(C)C(=O)N1CCC(CC(=O)O)CC1` (stereo not drawn) [Example 40, N-(N-4-amidino-2-fluorobenzoyl-β-methyl-α, α-dimethyl-β-alanyl)-4-piperidineacetic acid] yielded an IC50 of 0.075 µM.

The term IC50 denotes the midpoint of a concentration-inhibition curve. Low readings indicate higher potency, high ones lower potency.
